This is an account of results in ChEMBL document CHEMBL1145843 (J Med Chem, 2003).

Active and inactive are the calls of the source.

Test [1] in a line: Inhibitory concentration of compound for inhibiting hematin polymerization. It is filed as functional.
In test [2] the test system is Plasmodium falciparum. Briefly: Growth inhibition against Plasmodium falciparum NF54; Not active <= 3000nM. The class given is functional, organism-based.
The test system of test [3] is Plasmodium falciparum. Briefly: Growth inhibition against Plasmodium falciparum K1; Not active <= 3000nM. It is filed as functional, organism-based.
Test [4] is described as follows: Hematin binding affinity of compound was determined as a measure of inhibiting hematin polymerization.

The compound `CCN(CC)CCCC(C)Nc1cccc2cc(Cl)ccc12` (configuration not stated) came in with an IC50 in test [1] above 2500 µM. The NI entry in the test with Plasmodium falciparum [2] and with Plasmodium falciparum [3] was “inactive” in each case.

Consider `CCN(CC)CCCC(C)Cc1ccnc2cc(Cl)ccc12` (configuration not stated), for which half-maximal inhibition in test [1] (IC50) was put at 1500 µM. For the same compound, the NI entry with Plasmodium falciparum [2] and in the test with Plasmodium falciparum [3] was “inactive” throughout. This compound also showed a Ka in test [4] of 84000 M⁻¹.

As a reminder, the IC50 is the midpoint of a concentration-inhibition curve. Higher therefore signals a need for much substance.
